Laboratory results reported in patent publication US20210293825A1, “METHODS FOR PRECISION THERAPEUTIC TARGETING OF HUMAN CANCER CELL MOTILITY AND KITS THEREOF” (UNITED STATES GOVERNMENT AS REPRESENTED BY THE DEPARTMENT …, priority 2018, published 2021).

Experiments:
PC3-luc cells = assay: Prostate cancer intracardiac injection bone metastasis model; type: in vivo, athymic mice
Experimental: Athymic mice were given intracardiac (IC) injections of PC3-luc cells on day 0 under ultrasound guidance, and underwent weekly IVIS imaging starting seven days post injection. Cohorts of N=20 control, N=20 Pre (treatment from 3 days prior to IC injection through end of experiment), N=10 Pre7Stop (treatment from 3 days prior to IC injection through 7 days post IC injection) and N=10 Post treatment (treatment from 3 days post-IC injection through end of experiment) mice were dosed with 80 mg/kg KBU2046 daily by oral gavage and mock treated with vehicle all other times. FIG. 3c depicts whole body and FIG. 3b depicts mandible flux as determined from weekly IVIS imaging. […] Arrows denote areas of bone destruction in controls, and corresponding areas in the Pre mouse. Student's t test (b-c) and Fisher's exact test (d) P values between the denoted cohorts are shown.
Prostate cancer: intracardiac (IC) injection. IC injection of 4.0×10^5 PC3-Luc cells into male 6-8 week old athymic mice with IVIS imaging was performed as described (Chu, K. et al., Mol Cancer Res 6, 1259-67 (2008)), and was done so under ultrasound guidance (FIG. 15). Mice were treated pre- and/or post-IC injection, as indicated. The pretreatment cohort emulates a metastasis naïve model wherein cell motility is required in order for cells to invade into a distant organ, in this case the jaw bone, for which this model is widely used. If KBU2046 were inhibiting cell motility, then in this model it would act to inhibit metastasis formation. In contrast, with the post implantation cohort, cells have already completed invasion into the jaw bone, and distant metastasis have been established. […] IVIS imaging was performed 30 minutes after IC injection to confirm systemic distribution of cells, and thereafter weekly for 4 weeks starting seven days post injection, allowing real time tracking of metastasis development and growth. Computed Tomograpgy (CT) (Inveon, Seimens) radiographic imaging was performed on some mice, as indicated, and resultant images analyzed in a blinded fashion using Inveon Research Workplace 4.2 visualization/analysis software and ImageJ. […] Experimental groups were randomly assigned to cages prior to the initiation of the study. CT images were analyzed in a blinded fashion to determine total bone loss using both the Invenon Research Workplace 4.2 visualization/analysis software and ImageJ. Specifically, to assess bone loss in an unbiased manor, an operator randomly loaded images into the system and blocked out identifying information prior to analysis by two separate blinded individuals.

[1] = system: RAF1 in PC3 and PC3-M cells; assay: RAF1-Ser338 phosphorylation in prostate cancer cells (Western blot); type: cell-based, human; conditions: 10 μM
Experimental: PC3 and PC3-M human prostate cancer cells were treated with 10 μM KBU2046 for the indicated lengths of time; control cells (C) were treated with vehicle. Levels of RAF1-Ser^338 phosphorylation (pRaf1), total RAF1, and GAPDH proteins were then measured by Western blot.

panel of 284 kinases = assay: KinaseProfiler radiometric assay platform (Millipore); type: biochemical; conditions: competition with ATP
From the text: Kinase assay system #3. KinaseProfiler™ and PhosphataseProfiler™ assay platforms (Millipore). This platform is radiometric-based (considered gold standard). It measures competition with respect to ATP for kinases and substrate protein for phosphatases. Most proteins were expressed via an insect-based system, and it evaluates a panel of 284 kinases and 20 phosphatases. […] Important negative findings include: MKK4, MKK6, p38 MAPK, MAPKAPK2, RAF1, ERK, MEK1, JNK1, 2 and 3, and numerous other MAPK cascade-associated kinases.

HSP90β = target: T1, HSP90β (Homo sapiens, UniProt P08238); assay: Biophysical binding assays and DARTS, isolated HSP90β; conditions: ITC, thermal shift, biolayer interferometry, dynamic light scattering, DARTS
T1 construct: made in house; host or cells: Rosetta BL-21 E. coli
T1 sequence (P08238 whole entry): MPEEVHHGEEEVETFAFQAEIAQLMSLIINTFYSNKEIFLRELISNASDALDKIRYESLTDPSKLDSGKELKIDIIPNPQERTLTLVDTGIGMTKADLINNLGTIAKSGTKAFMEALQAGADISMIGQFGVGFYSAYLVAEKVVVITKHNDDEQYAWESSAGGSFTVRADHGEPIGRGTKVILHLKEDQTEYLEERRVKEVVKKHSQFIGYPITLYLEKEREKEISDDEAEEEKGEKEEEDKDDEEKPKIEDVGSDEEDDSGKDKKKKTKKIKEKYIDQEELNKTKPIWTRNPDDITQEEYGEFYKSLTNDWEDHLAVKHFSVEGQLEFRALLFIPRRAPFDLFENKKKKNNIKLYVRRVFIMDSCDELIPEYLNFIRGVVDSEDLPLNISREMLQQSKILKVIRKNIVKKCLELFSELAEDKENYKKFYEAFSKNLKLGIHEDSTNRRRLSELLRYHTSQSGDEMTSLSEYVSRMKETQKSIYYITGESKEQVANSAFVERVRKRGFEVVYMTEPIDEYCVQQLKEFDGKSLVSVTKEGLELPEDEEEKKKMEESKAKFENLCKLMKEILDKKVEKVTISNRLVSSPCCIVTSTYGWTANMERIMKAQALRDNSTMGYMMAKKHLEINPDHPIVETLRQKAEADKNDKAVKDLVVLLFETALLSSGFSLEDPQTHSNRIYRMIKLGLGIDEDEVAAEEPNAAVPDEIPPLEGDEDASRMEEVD
Experimental: Studies used purified recombinant HSP90β or CDC37. […] For DARTS assay, HSP90β or CDC37 were individually pre-incubated with KBU2046, thermolysin added, and reaction products were separated by SDS PAGE and visualized by silver stain (depicted above). NTco—no thermolysin control. However, when the DARTS assay was conducted with both HSP90β and CDC37 present, KBU2046 protected both proteins from degradation in a concentration-dependent manner (see, FIG. 5a).
DARTS provides a sensitive measure of ligand-induced changes in protein structure and dynamics by measuring the ability of a ligand to protect its target from protease digestion (Lomenick, B. et al., Proc Natl Acad Sci USA 106, 21984-9 (2009)). […] The intensity of the CDC37 band increased, that of the HSP90β degradation product decreased, and both effects were statistically significant, concentration-dependent and were evident at 10 nM. […] Further, these findings also indicate that KBU2046 is not acting as a classical HSP90 inhibitor.
Biophysical and Biochemical Binding Assays. […]

[2] = system: recombinant human protein kinases; assay: Kinex kinase assay system (inhibition of ATP binding); conditions: tested at 1 and 10 μM
Experimental: Kinase assay system #2. The Kinex™ kinase assay system (Kinexus Proteomics Company). This platform uses recombinant human protein kinases expressed in an insect expression system, thus allowing an avenue for post-translational modification. Also, this platform measures inhibition of ATP binding. This platform putatively measured 200 different kinases, and we tested KBU2046 at 1 and 10 μM. […] There were two important technical issues. First, at 10 μM KBU2046 interfered with the colorimetric-based readout of the assay. […] Conclusions: there was no evidence that KBU2046 inhibits kinase function by competing for ATP binding in the active site.

[3] = Pre cohort, 80 mg/kg daily oral gavage

O=C1c2ccccc2OCC1c1ccc(F)cc1 (racemic) [KBU2046, (±)-3(4-fluorophenyl)chroman-4-one]
metastasis to the total body and to the jaw (PC3-luc cells; Post cohort, treatment from 3 days post-IC injection): do not differ from control mice | jaw metastasis (PC3-luc cells; Pre7Stop cohort): jaw metastasis is significantly decreased compared to control | total body metastasis (PC3-luc cells; Pre7Stop cohort, compared to control and Post cohorts): total body metastasis is significantly decreased | metastasis to the mandible (PC3-luc cells; [3]): decreased metastasis to the mandible | total metastatic burden (whole body flux) (PC3-luc cells; [3]): significant decrease in total metastatic burden | destruction of bone (mandible, Computed Tomography) (PC3-luc cells; Pre cohort, week 4): decreased destruction of bone | levels of phospho-RAF1 [1]: decreased levels of phospho-RAF1 in a time-dependent manner | inhibition of kinase activity (panel of 284 kinases): no evidence that KBU2046 inhibits kinase activity | binding to HSP90β (HSP90β): no evidence of KBU2046 binding | inhibition of ATP binding [2]: completely negative
